Experimental data published in ChEMBL document CHEMBL2203024, “Synthesis of 6"-triazole-substituted α-GalCer analogues as potent iNKT cell stimulating ligands” (Bioorg Med Chem, 2012).
The source made the active and inactive calls. The rule behind the calls is not given here.

test system: iNKT; test: Antigenic activity in mouse iNKT cells co-cultured with N38-2C12 cells assessed as potentiation of glycolipid loaded bone marrow dendritic cells-induced IL-2 secretion by ELISA; format: functional, cell-based

SMILES | Activity
CCCCCCCCCCCCCCCCCCCCCCCCCC(=O)N[C@@H](CO[C@H]1O[C@H](Cn2cc(Cc3ccccc3)nn2)[C@H](O)[C@H](O)[C@H]1O)[C@H](O)[C@H](O)CCCCCCCCCCCCCC | Active
CCCCCCCCCCCCCCCCCCCCCCCCCC(=O)N[C@@H](CO[C@H]1O[C@H](Cn2cc(CCc3ccccc3)nn2)[C@H](O)[C@H](O)[C@H]1O)[C@H](O)[C@H](O)CCCCCCCCCCCCCC | Active
CCCCCCCCCCCCCCCCCCCCCCCCCC(=O)N[C@@H](CO[C@H]1O[C@H](Cn2cc(CCCC)nn2)[C@H](O)[C@H](O)[C@H]1O)[C@H](O)[C@H](O)CCCCCCCCCCCCCC | Active
CCCCCCCCCCCCCCCCCCCCCCCCCC(=O)N[C@@H](CO[C@H]1O[C@H](Cn2cc(CCCc3ccccc3)nn2)[C@H](O)[C@H](O)[C@H]1O)[C@H](O)[C@H](O)CCCCCCCCCCCCCC | Active
CCCCCCCCCCCCCCCCCCCCCCCCCC(=O)N[C@@H](CO[C@H]1O[C@H](Cn2cc(-c3ccccc3)nn2)[C@H](O)[C@H](O)[C@H]1O)[C@H](O)[C@H](O)CCCCCCCCCCCCCC | Active
CCCCCCCCCCCCCCCCCCCCCCCCCC(=O)N[C@@H](CO[C@H]1O[C@H](Cn2ccnn2)[C@H](O)[C@H](O)[C@H]1O)[C@H](O)[C@H](O)CCCCCCCCCCCCCC | Active
